Experimental data published in the supplement of paper PMC11061612.

Key:
Assay in all cases: Bliss excess, mean over the matrix (fraction); higher = more synergy
ACHN (Kidney Carcinoma) = tested on: ACHN (Kidney Carcinoma)
Method in brief: (§1)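 Cell lines in DMEM/F12 or RPMI with 10% FBS were plated in 1536-well plates, held 24 hours at 37°C, 5% CO2, then given two-drug dose matrices for 72 hours (DMSO typically 0.2%). Viability was read by CellTiter-Glo 2.0 luminescence and scaled as inhibition from 0 (vehicle wells) to 1 (blank wells). Combination Emax is the second-highest inhibition in the matrix; Bliss excess is observed combination effect minus expected EA + EB − EA·EB, EA and EB being single-agent effects.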

[1] = tested on: AMO-1 (Plasma Cell Myeloma)
Method in brief: as §1

[2] = tested on: BT-549 (Breast Carcinoma)
Method in brief: as §1

[3] = tested on: HGC-27 (Gastric Carcinoma)
Method in brief: as §1

[4] = tested on: HSC-4 (Oral Cavity Carcinoma)
Method in brief: as §1

[5] = tested on: KARPAS-299 (T-Cell Non-Hodgkin's Lymphoma)
Method in brief: as §1

[6] = tested on: KMOE-2 (Acute Myeloid Leukemia)
Method in brief: as §1

[7] = tested on: LU-65 (Non-Small Cell Lung Carcinoma)
Method in brief: as §1

[8] = tested on: NCI-H358 (Lung Adenocarcinoma)
Method in brief: as §1

[9] = tested on: NEC8 (Other Solid Carcinomas)
Method in brief: as §1

[10] = tested on: NUGC-3 (Gastric Carcinoma)
Method in brief: as §1

[11] = tested on: OE19 (Esophageal Adenocarcinoma)
Method in brief: as §1

[12] = tested on: OVCAR-4 (Ovarian Carcinoma)
Method in brief: as §1

[13] = tested on: PANC-04-03 (Pancreatic Carcinoma)
Method in brief: as §1

PWR-1E (Non-Cancerous) = tested on: PWR-1E (Non-Cancerous)
Method in brief: as §1

[14] = tested on: RF-48 (B-Cell Non-Hodgkin's Lymphoma)
Method in brief: as §1

[15] = tested on: SCC-15 (Oral Cavity Carcinoma)
Method in brief: as §1

[16] = tested on: SU8686 (Pancreatic Carcinoma)
Method in brief: as §1

[17] = tested on: SW13 (Other Solid Carcinomas)
Method in brief: as §1

UACC-62 (Melanoma) = tested on: UACC-62 (Melanoma)
Method in brief: as §1

Row | SMILES | Bliss excess (ACHN (Kidney Carcinoma)) | Bliss excess [1] | Bliss excess [2] | Bliss excess [3] | Bliss excess [4] | Bliss excess [5] | Bliss excess [6] | Bliss excess [7] | Bliss excess [8] | Bliss excess [9] | Bliss excess [10] | Bliss excess [11] | Bliss excess [12] | Bliss excess [13] | Bliss excess (PWR-1E (Non-Cancerous)) | Bliss excess [14] | Bliss excess [15] | Bliss excess [16] | Bliss excess [17] | Bliss excess (UACC-62 (Melanoma))
1 | Cc1c2c(nn1C)CSCc1cc(n(C)n1)CSc1cc(c3ccccc3c1)OCCCc1c(C(=O)O)n(C)c3c-2c(Cl)ccc13 [AZD5991] + Cc1cc2ncnn2cc1Nc1ncc2c(n1)n(C1CCOCC1)c(=O)n2C [AZD7648] (first compound max 1 µM, 7x7, partner max 10 µM) | -0.0271 | -0.0215 | -0.0523 | -0.0131 | -0.0702 | -0.0066 | -0.0085 | -0.105 | -0.0836 | -0.0056 | -0.0237 | -0.0645 | -0.0073 | -0.0242 | -0.0363 | -0.0115 | -0.042 | -0.0366 | 0.0165 | -0.0534
2 | COc1cccc(OCCCN)c1-c1cc(Nc2cnc(C#N)cn2)n[nH]1 [Prexasertib] + CCc1c2c(nc3ccc(O)cc13)-c1cc3c(c(=O)n1C2)COC(=O)[C@]3(O)CC [SN-38] (first compound max 1 µM, 7x7, partner max 0.3 µM) | -0.0755 | -0.04 | -0.0474 | 0.0388 | -0.0372 | -0.0223 | 0.0296 | -0.0185 | -0.0212 | 0.0129 | 0.0136 | 0.129 | 0.0476 | -0.067 | 0.0309 | -0.0572 | -0.0236 | 0.02 | 0.0459 | -0.042
3 | CCN(CCO)CCCOc1ccc2c(Nc3cc(CC(=O)Nc4cccc(F)c4)[nH]n3)ncnc2c1 [AZD2811] + C[C@@H]1COCCN1C2=NC(=NC(=C2)C3(CC3)[S@](=N)(=O)C)C4=C5C=CNC5=NC=C4 [AZD6738] (first compound max 1 µM, 7x7, partner max 10 µM) | -0.0369 | -0.0135 | 0.0066 | -0.0885 | -0.0687 | -0.0024 | -0.032 | -0.0777 | 0.0096 | 0.0487 | 0.004 | -0.0264 | -0.0179 | -0.0563 | -0.0472 | -0.0434 | -0.0478 | -0.034 | 0.0474 | -0.0338
4 | CCN(CCO)CCCOc1ccc2c(Nc3cc(CC(=O)Nc4cccc(F)c4)[nH]n3)ncnc2c1 [AZD2811] + O=C(c1cc(Cc2n[nH]c(=O)c3ccccc23)ccc1F)N1CCN(C(=O)C2CC2)CC1 [Olaparib] (first compound max 1 µM, 7x7, partner max 10 µM) | 0.0023 | 0.0193 | -0.0015 | -0.0122 | -0.0347 | 0.0298 | 0.0545 | 0.0014 | -0.063 | 0.0116 | 0.0181 | 0.0454 | 0.0234 | -0.0177 | 0.0243 | 0.0181 | -0.0376 | -0.0075 | 0.0345 | -0.004
5 | CN(C)CCCOc1ccc(-c2ccc3ncc4c(c3c2)n(C2CCOCC2)c(=O)n4C)cn1 [AZD0156] + C=CCn1c(=O)c2cnc(Nc3ccc(N4CCN(C)CC4)cc3)nc2n1-c1cccc(C(C)(C)O)n1 [AZD1775] (first compound max 1 µM, partner max 1 µM) | 0.022 | 0.011 | -0.0986 | 0.0088 | -0.0418 | 0.0063 | -0.039 | -0.0032 | 0.0011 | 0.0183 | -0.0369 | 0.0012 | -0.0368 | -0.0836 | 0.0144 | -0.0093 | -0.0799 | -0.0231 | -0.0449 | 0.0087
6 | C=CCn1c(=O)c2cnc(Nc3ccc(N4CCN(C)CC4)cc3)nc2n1-c1cccc(C(C)(C)O)n1 [AZD1775] + C1CN(CCC1(C(=O)N[C@@H](CCO)C2=CC=C(C=C2)Cl)N)C3=NC=NC4=C3C=CN4 [Capivasertib] (first compound max 3 µM, partner max 3 µM) | -0.0283 | 0.0002 | -0.0628 | 0.0785 | 0.0018 | -0.0444 | 0.0273 | -0.0688 | -0.0375 | 0.013 | 0.0143 | 0.0192 | -0.0627 | 0.083 | -0.0165 | -0.0989 | -0.0319 | -0.0619 | -0.016 | 0.0375
